pIC50: −log10 of the molar value.
Each compound was assayed against T1, angiotensin II receptor (Oryctolagus cuniculus, UniProt P34976) (assay: inhibition of angiotensin II induced contraction of isolated rabbit aorta rings). Conditions: test compound incubated 20 minutes, 37° C., pH 7.4, read-out: IC50 (concentration being required to inhibit angiotensin II induced contraction by 50%).
T1 construct: The aorta was cut into 3~4 mm to form ring samples; from tissue; host or cells: isolated aorta rings of New Zealand White rabbits
T1 sequence (P34976 1-359): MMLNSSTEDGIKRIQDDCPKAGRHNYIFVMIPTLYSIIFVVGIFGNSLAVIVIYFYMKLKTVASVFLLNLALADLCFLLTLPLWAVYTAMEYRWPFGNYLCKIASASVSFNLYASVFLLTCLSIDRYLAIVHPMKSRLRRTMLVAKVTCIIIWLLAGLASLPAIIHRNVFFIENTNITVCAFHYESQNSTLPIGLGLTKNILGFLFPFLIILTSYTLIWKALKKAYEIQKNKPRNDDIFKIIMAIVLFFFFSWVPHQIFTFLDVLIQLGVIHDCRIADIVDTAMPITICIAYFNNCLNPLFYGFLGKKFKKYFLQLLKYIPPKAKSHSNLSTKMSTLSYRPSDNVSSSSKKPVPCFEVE
Assay type: cell-based, New Zealand White rabbit
Description: The antagonistic activity of the representative compounds of the invention was evaluated using the methodology describe below.
From New Zealand White rabbits (male or female, 2~2.5 kg), aorta was isolated, and fat and connected tissue were removed therefrom. The aorta was cut into 3~4 mm to form ring samples. The aorta sample was suspended in 20 ml of organ bath (37° C.) containing modified Krebs-Henseleit solution saturated with 95% O2 /5% CO2 (pH 7.4).
The aorta preparation was exposed consecutively to 2 g of tensile strength for 90 minutes intermittently washing the sample with 30 minutes interval and then to 30 mM of KCl to observe contraction response. After washing more than three times, the aorta preparation was again allowed to contract three times for stabilization by adding Angiotensin II ([…]) thereto with 30 minutes interval. The third contraction response to Angiotensin II was considered as control.
10 minutes after the third contraction, the test compound was administered to the aorta preparation, which was incubated for 20 minutes.
Comparing angiotensin II contraction curve obtained from the above inhibition test with that of the control, IC50 (concentration being required to inhibit angiotensin II induced contraction by 50%) was determined for each test compound(Table 1).

SMILES	pIC50
CCCc1nc(C)c(CCC(=O)N(CC)CC)c(=O)n1Cc1ccc(-c2ccccc2-c2nnn[nH]2)cc1 [Compound 16, 2-n-propyl-5-(2'-diethylaminocarbonylethyl)-6-methyl-3-[[2'-(1H-tetrazol-5-yl)biphenyl-4-yl]methyl]-pyrimidin-4-(3H)-one]	6.76
CCCCc1nc(C)c(CC(=O)N2CCN(C)CC2)c(=O)n1Cc1ccc(-c2ccccc2-c2nn[nH]n2)cc1 [Compound 76, 2-n-butyl-5-(4'-methylpiperazinocarbonylmethyl)-6-methyl-3-[[2'-(1H-tetrazol-5-yl)biphenyl-4-yl]methyl]-pyrimidin-4-(3H)-one]	8.44
CCCCc1nc(CC)c(CCC(=O)O)c(=O)n1Cc1ccc(-c2ccccc2-c2nn[nH]n2)cc1 [Compound 34, 2-n-butyl-5-(2'-carboxyethyl)-6-ethyl-3-[[2'-(1H-tetrazol-5-yl)-biphenyl-4-yl]methyl]-pyrimidin-4-(3H)-one]	8.38
CCCCc1nc(C)c(CCC(=O)N2CCSCC2)c(=O)n1Cc1ccc(-c2ccccc2-c2nn[nH]n2)cc1 [Compound 80, 2-n-butyl-5-(2'-thiomorpholinocarbonylethyl)-6-methyl-3-[[2'-(1H-tetrazol-5-yl)biphenyl-4-yl]methyl]-pyrimidin-4-(3H)-one]	8.39
CCCCc1nc(C)c(CCC(=O)N2CCCC(C(=O)N(CC)CC)C2)c(=O)n1Cc1ccc(-c2ccccc2-c2nn[nH]n2)cc1 (centres unmarked) [Compound 69, 2-n-butyl-5-[2'-(3"-diethylaminocarbonylpiperidino)carbonylethyl]-6-methyl-3-[[2'-(1H-tetrazol-5-yl)biphenyl-4-yl]methyl]-pyrimidin-4-(3H)-one]	7.97
CCCCc1nc(CCC)c(CCC(=O)OCC)c(=O)n1Cc1ccc(-c2ccccc2-c2nn[nH]n2)cc1 [Compound 36, 2-n-butyl-5-(2'-ethoxycarbonylethyl)-6-propyl-3-[[2'-(1H-tetrazol-5-yl)biphenyl-4-yl]methyl]-pyrimidin-4-(3H)-one]	7.35
CCCCc1nc(C)c(CC(=O)N2CCC(C(N)=O)CC2)c(=O)n1Cc1ccc(-c2ccccc2-c2nn[nH]n2)cc1 [Compound 54, 2-n-butyl-5-(4'-aminocarbonylpiperidinocarbonylmethyl)-6-methyl-3-[[2'-(1H-tetrazol-5-yl)biphenyl-4-yl]methyl]-pyrimidin-4-(3H)-one]	8.66
CCCCc1nc(C)c(CCC(=O)N2CCOCC2)c(=O)n1Cc1ccc(-c2ccccc2-c2nn[nH]n2)cc1 [Compound 78, 2-n-butyl-5-(2'-morpholinocarbonylethyl)-6-methyl-3-[[2'-(1H-tetrazol-5-yl)biphenyl-4-yl]methyl]-pyrimidin-4-(3H)-one]	8.28
CCCCc1nc(C)c(CC(=O)N2CCCC(C(=O)N(CC)CC)C2)c(=O)n1Cc1ccc(-c2ccccc2-c2nn[nH]n2)cc1 (centres unmarked) [Compound 55, 2-n-butyl-5-(3'-diethylaminocarbonylpiperidinocarbonylmethyl)-6-methyl-3-[[2'-(1H-tetrazol-5-yl)biphenyl-4-yl]methyl]-pyrimidin-4-(3H)-one]	8.44
CCCCc1nc(C)c(CC(=O)OCC)c(=O)n1Cc1ccc(-c2ccccc2C(=O)O)cc1 [Compound 38, 2-n-butyl-5-ethoxycarbonylmethyl-6-methyl-3-(2'-carboxy-biphenyl-4-yl)methyl-pyrimidin-4-(3H)-one]	6.47
CCCCc1nc(C)c(CCC(=O)N2CCCCCC2)c(=O)n1Cc1ccc(-c2ccccc2-c2nn[nH]n2)cc1 [Compound 70, 2-n-butyl-5-(2'-hexamethyleneiminocarbonylethyl)-6-methyl-3-[[2'-(1H-tetrazol-5-yl)biphenyl-4-yl]methyl]-pyrimidin-4-(3H)-one]	7.94
CCCCc1nc(C)c(CCC(=O)N2CCC[C@H]2C(N)=O)c(=O)n1Cc1ccc(-c2ccccc2-c2nn[nH]n2)cc1 [Compound 60, 2-n-butyl-5-[2'-((S)-2"-aminocarbonylpyrrolidino)carbonylethyl]-6-methyl-3-[[2'-(1H-tetrazol-5-yl)biphenyl-4-yl]methyl]-pyrimidin-4-(3H)-one]	8.54
CCCc1nc(C)c(CC(=O)N(CC)CC)c(=O)n1Cc1ccc(-c2ccccc2-c2nnn[nH]2)cc1 [Compound 12, 2-n-propyl-5-diethylaminocarbonylmethyl-6-methyl-3-[[2'-(1H-tetrazol-5-yl)biphenyl-4-yl]methyl]-pyrimidin-4-(3H)-one]	8.25
CCCCc1nc(C)c(CC(=O)N2CC=CC2)c(=O)n1Cc1ccc(-c2ccccc2-c2nn[nH]n2)cc1 [Compound 44, 2-n-butyl-5-(3'-pyrrolinocarbonylmethyl)-6-methyl-3-[[2'-(1H-tetrazol-5-yl)biphenyl-4-yl]methyl]-pyrimidin-4-(3H)-one]	8.69
CCCCc1nc(C)c(CC(=O)N2CCCC(C)(C)C2)c(=O)n1Cc1ccc(-c2ccccc2-c2nn[nH]n2)cc1 [Compound 49, 2-n-butyl-5-(3',3'-dimethylpiperidinocarbonylmethyl)-6-methyl-3-[[2'-(1H-tetrazol-5-yl)biphenyl-4-yl]methyl]-pyrimidin-4-(3H)-one]	8.05
CCCCc1nc(C)c(CC(=O)N2CCCC2)c(=O)n1Cc1ccc(-c2ccccc2-c2nnn[nH]2)cc1 [Compound 40, 2-n-butyl-5-pyrrolidinocarbonylmethyl-6-methyl-3-[[2'-(1H-tetrazol-5-yl)biphenyl-4-yl]methyl]-pyrimidin-4-(3H)-one]	8.56
CCCCc1nc(C)c(CC(=O)OCC)c(=O)n1Cc1ccc(-c2ccccc2-c2nnn[nH]2)cc1 [Compound 17, 2-n-butyl-5-ethoxycarbonylmethyl-6-methyl-3-[[2'-(1H-tetrazol-5-yl)biphenyl-4-yl]methyl]-pyrimidin-4-(3H)-one]	8.33
CCCCc1nc(=O)c(CC(=O)OCC)c(C)n1Cc1ccc(-c2ccccc2-c2nnn[nH]2)cc1 [Compound 18, 2-n-butyl-5-ethoxycarbonylmethyl-6-methyl-1-[[2'-(1H-tetrazol-5-yl)biphenyl-4-yl]methyl]-pyrimidin-4-(1H)-one]	7.03

More lines, in order of rising pIC50, values ahead:

pIC50	SMILES
6.77	CCCCc1nc(=O)c(CCC(=O)OCC)c(C)n1Cc1ccc(-c2ccccc2-c2nnn[nH]2)cc1 [Compound 24, 2-n-butyl-5-(2'-ethoxycarbonylethyl)-6-methyl-1-[[2'-(1H-tetrazol-5-yl)biphenyl-4-yl]methyl]-pyrimidin-4-(1H)-one]
7.37	CCCCc1nc(=O)c(CCC(=O)O)c(C)n1Cc1ccc(-c2ccccc2-c2nnn[nH]2)cc1 [Compound 26, 2-n-butyl-5-(2'-carboxyethyl)-6-methyl-1-[[2'-(1H-tetrazol-5-yl)-biphenyl-4-yl]methyl]-pyrimidin-4-(1H)-one]
7.43	CCCc1nc(C)c(CC(=O)O)c(=O)n1Cc1ccc(-c2ccccc2-c2nnn[nH]2)cc1 [Compound 10, 2-n-propyl-5-carboxymethyl-6-methyl-3-[[2'-(1H-tetrazol-5-yl)-biphenyl-4-yl]methyl]-pyrimidin-4-(3H)-one]
7.85	CCc1nc(C)c(CC(=O)O)c(=O)n1Cc1ccc(-c2ccccc2-c2nnn[nH]2)cc1 [Compound 2, 2-ethyl-5-carboxymethyl-6-methyl-3-[[2'-(1H-tetrazol-5-yl)-biphenyl-4-yl]methyl]-pyrimidin-4-(3H)-one]
7.88	CCCCc1nc(C)c(CCC(=O)N2C(C)COCC2C)c(=O)n1Cc1ccc(-c2ccccc2-c2nn[nH]n2)cc1 (centres unmarked) [Compound 79, 2-n-butyl-5-[2'-(3",5"-dimethylmorpholino)carbonylethyl]-6-methyl-3-[[2'-(1H-tetrazol-5-yl)biphenyl-4-yl]methyl]-pyrimidin-4-(3H)-one]
8.20	CCCCc1nc(C)c(CC(=O)N2CCCCC2C(=O)OCC)c(=O)n1Cc1ccc(-c2ccccc2-c2nn[nH]n2)cc1 (centres unmarked) [Compound 53, 2-n-butyl-5-(2'-ethoxycarbonylpiperidinocarbonylmethyl)-6-methyl-3-[[2'-(1H-tetrazol-5-yl)biphenyl-4-yl]methyl]-pyrimidin-4-(3H)-one]
8.55	CCc1nc(=O)c(CCC(=O)O)c(C)n1Cc1ccc(-c2ccccc2-c2nnn[nH]2)cc1 [Compound 7, 2-ethyl-5-(2'-carboxyethyl)-6-methyl-1-[[2'-(1H-tetrazol-5-yl)-biphenyl-4-yl]methyl]-pyrimidin-4-(1H)-one]
8.56	CCCCc1nc(C)c(CC(=O)N2CCSCC2)c(=O)n1Cc1ccc(-c2ccccc2-c2nn[nH]n2)cc1 [Compound 75, 2-n-butyl-5-thiomorpholinocarbonylmethyl-6-methyl-3-[[2'-(1H-tetrazol-5-yl)biphenyl-4-yl]methyl]-pyrimidin-4-(3H)-one]

— patent US5869476A, “Pyrimidinone derivatives” (Boryung Pharmaceutical Co., Ltd., priority 1994, dated 1999)
